Patent US5677282A (Proscript, Inc., priority 1995, dated 1997)

Assays:
stromelysin = stromelysin (Homo sapiens, UniProt P08254); assay: Assay of stromelysin inhibition activity (fluorogenic coumarin peptide substrate); assay type: biochemical; conditions: trypsin-activated stromelysin 2 nM, H-150 buffer pH 7.4, room temperature; read-out: Ki(app)
Method in brief: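 Human stromelysin trypsin-activated, then used at 2 nM in HEPES/NaCl/CaCl2 buffer pH 7.4 at room temperature with coumarin peptide substrate. Initial hydrolysis rate followed by fluorescence (ex 328/em 393 nm); inhibitor added stepwise to 30-70% inhibition, Ki derived assuming simple competitive inhibition with substrate far below Km.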

[1] = system: bovine cartilage explants; assay: Bovine cartilage explant assay (35S-GAG release, rhIL-1α stimulated); assay type: cell-based; conditions: rhIL-1α 5 ng/mL, 3-4 days culture
From the text: A tissue culture assay was used to measure the ability of the compounds of the present invention to slow the degradation of the extracellular matrix by metalloproteinases. This assay measured the amount of ^35 S-glycosaminoglycan (^35 S-GAG) released from labeled bovine cartilage explants.
Knee joints from a 1 to 3 week old calf were obtained immediately after sacrifice from the Abattoir and then transported on ice. The intact joints were washed well with tap water and soaked in 50% (v/v) Povidine iodine solution, obtained from Burre National, Inc., Baltimore, Md. All subsequent steps were performed in a laminar flow tissue culture hood using standard sterile technique. The joint was immobilized in a shank holder and the joint capsule was cut open to expose the articular cartilage. Cartilage explant plugs, approximately 15 mg wet weight, were removed from the flat articulating surfaces in the lower-most region of the knee joint using a sterile steel cork-borer and collected in a 250 mL roller bottle containing about 100 mL fresh Delbecco's minimum essential medium (DMEM), obtained from Gibco BRC, Life Technologies, Gaithersburg, Md., containing 4.5 g/l (D)-glucose and (L)-glutamine, without sodium pyruvate. The fresh media also contained enough Hepes buffer and sodium bicarbonate such that the pH was about 7.4. The media was then further supplemented just before use with 100 units Penicillin, 100 μg Streptomycin, and 50 μg (L)-ascorbic acid per mL of medium.
Once collected, the explant plugs were washed four times with 50 mL fresh DMEM. The plugs were then placed in the incubator for a minimum of 1 hour to equilibrate, before proceeding to make disks from the articulating surface of each plug. A 1 mm thick disk was sliced from individual plugs from the end that was the articulating surface of the joint. The plug was held steady in the sterile template (4 mm diameter×1.5 mm deep) using sterile forceps. A scalpel blade was used to carefully slice off the disk. Only the superficial articulating surface responded well in culture.
Individual disks obtained were transferred to a tissue culture flask containing about 100 mL fresh media. The flask containing the disks was placed in an incubator at 37° C. (with 5% CO2, 95% air) and allowed to equilibrate overnight and at least one additional day before labeling. When ready to label, the old media was replaced with 50 mL fresh media containing about 500 μCi ^35 S-Sodium Sulfate. The plugs were labeled in bulk for about 48 hours. The next morning, the "hot" media was removed and replaced with fresh "cold" media. The disks were again allowed to equilibrate overnight before being used for actual experiments.
The media in which the disks were stored was changed immediately prior to performing the assay. The disks were then returned to the incubator until the test media and the two control media had been prepared. The test media consisted of the desired concentration of a compound being tested for its ability to inhibit extracellular matrix degradation and concomitant recombinant human Interleukin rhIL-1α (5 ng/mL) in fresh DMEM solution. The control media were identical to the test media, except that the first control media lacked rhIL-1α and the second control media lacked the test compound. 250 μL of each of the test and control media were transferred to separate 96-well TC plates. Flamed forceps were used to transfer a disk from the incubator to each 96-well TC plates that had been filled with either the test media or one of the two control media.
The TC plates were then placed in the incubator and cultured for 3-4 days (initial incubation with rhIL-1α alpha takes at least 3 days to stimulate endogenous metalloproteinases). A 50 μL aliquot of media from each TC plate was saved and counted. The rest of the media was removed with a suction device.
The cartilage disks from each TC plate were also saved for counting. […]

92 kD gelatinase = 92 kD gelatinase (Homo sapiens, UniProt P14780); assay: Assay of 92 KD gelatinase inhibition activity; assay type: biochemical; conditions: 92KD gelatinase 25 pM, H-150 buffer pH 7.4; read-out: Ki(app)
Chain of 92 kD gelatinase (P14780 107-707): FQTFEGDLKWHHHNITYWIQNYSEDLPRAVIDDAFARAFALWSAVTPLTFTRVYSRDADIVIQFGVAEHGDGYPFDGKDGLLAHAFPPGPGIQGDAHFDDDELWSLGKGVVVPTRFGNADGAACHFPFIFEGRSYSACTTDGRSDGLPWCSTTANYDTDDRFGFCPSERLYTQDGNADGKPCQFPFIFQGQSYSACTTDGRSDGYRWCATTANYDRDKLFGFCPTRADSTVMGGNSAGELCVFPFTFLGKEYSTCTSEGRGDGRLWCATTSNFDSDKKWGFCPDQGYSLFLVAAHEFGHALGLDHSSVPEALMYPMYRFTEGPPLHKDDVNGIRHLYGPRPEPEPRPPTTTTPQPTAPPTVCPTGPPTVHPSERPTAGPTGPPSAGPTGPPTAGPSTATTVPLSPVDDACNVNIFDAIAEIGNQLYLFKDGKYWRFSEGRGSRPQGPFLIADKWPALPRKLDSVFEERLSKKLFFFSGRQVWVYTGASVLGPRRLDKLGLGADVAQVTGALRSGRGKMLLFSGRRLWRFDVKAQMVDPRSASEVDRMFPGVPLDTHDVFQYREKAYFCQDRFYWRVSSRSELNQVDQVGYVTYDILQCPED
Protocol: H-150 buffer, pH 7.4, was prepared by CaCl2 H2 O (1.47 grams), NaCl (8.77 grams) and N-[2-hydroxyethyl]piperazine-N'-[2-ethanesulfonic acid](23.83 grams) to distilled and deionized water and then bring the final volume of the solution to 1 liter. A reaction mixture having a final volume of 500 μL was prepared with H-150 buffer, 200 μgrams of Pro-92KD gelatinase (Strongin et al., J. Biol. Chem., 268:14033 (1993); Goldberg, et al., J. Biol. Chem., 267:4583 (1992); Okada et al., J. Biol. Chem. 267:21712 (1992)), p-aminophenyl mercuric acetate (Sigma Chemical Co., St. Louis, Mo.) (1 mM) and Brij (dodexylpoly(oxyethyleneglycolether))(0,008% w/v). The reaction mixture wsa then incubated for 24 hours at 37° C.
The reaction mixture was applied to a NAP-5 column (G-25 SEPHADEX™, Pharmacia). Fractions containing 72KD gelatinase were identified using 12% polyacrylamide gel electrophoresis and concentrated to about 100-200 μliters by centrifigation (5000 g, 1 hour).
A solution containing H-150 buffer (2.0 mL), 92KD gelatinase (25 pM) and ethylphenolpoly(ethylene-glycolether)n (Boerhringer Mannheim) (4.0 μM) was prepared in a stirred cuvette. Coumarin peptide substrate (4 μL of a 5 mM solution in dimethyl sulfoxide) was added to the reaction mixture. The rate of hydrolysis was determined for about 100-200 seconds by measuring the fluorescence of the reaction at ex328 nanometers and […] using a Hitachi F-2000 Fluorescence Spectrophotometer.
(§1) 2 μL of a 10 mM inhibitor stock solution (in dimethyl sulfoxide) is added and the reduction in the rate of hydrolysis is determined. Additional 2 μL aliquots of the stock inhibitor solution is added until a 30% to 70% inhibition is observed. Ki is calculated on the assumption of simple competitive inhibition and that the substrate concentration is much less than Km.

[2] = biological target: human neutrophil collagenase (Homo sapiens, UniProt P22894); assay: Assay of human neutrophil collagenase inhibition activity; assay type: biochemical; conditions: human neutrophil collagenase 2 nM, H-150 buffer pH 7.4; read-out: Ki(app)
Chain of human neutrophil collagenase (P22894 101-467): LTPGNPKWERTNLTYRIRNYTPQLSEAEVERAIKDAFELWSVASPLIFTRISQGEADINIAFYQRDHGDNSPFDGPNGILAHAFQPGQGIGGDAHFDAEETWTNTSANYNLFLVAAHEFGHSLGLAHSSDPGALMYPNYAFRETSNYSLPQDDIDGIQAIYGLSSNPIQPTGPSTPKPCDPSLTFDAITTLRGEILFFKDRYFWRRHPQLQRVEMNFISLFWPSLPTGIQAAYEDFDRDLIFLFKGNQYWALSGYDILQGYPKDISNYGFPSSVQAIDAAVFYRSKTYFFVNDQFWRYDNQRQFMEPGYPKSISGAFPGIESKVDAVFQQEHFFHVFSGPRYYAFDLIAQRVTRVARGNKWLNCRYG
Protocol: H-150 buffer, pH 7.4, was prepared by adding CaCl2 H2 O (1.47 grams), NaCl (8.77 grams) and N-[2-hydroxyethyl]piperazine-N'-[2-ethanesulfonic acid] (23.83 grams) to distilled and deionized water and then bringing the final volume of the solution to 1 liter.
A reaction mixture with a final volume of 2.0 mL was prepared from H-150 buffer, human neutrophil collagenase (Schnierer, et al., Blochem. Biophys. Res. Comm., 191:319 (1993); Knight et al., Federation of Europena Biochemical Societies 296:263 (1992)) (2 nM). Coumarin peptide substrate (4 μL of a 5 mM solution in dimethyl sulfoxide) was added to the reaction mixture. The rate of hydrolysis was determined for about 100-200 seconds by measuring the fluorescence of the reaction at ex328 nanometers and […] using a Hitachi F-2000 Fluorescence Spectrophotometer.
as §1

[3] = Bos taurus, 25 μM compound, read-out: % inhibition (concentration [μM]) of cartilage degradation

Chain of stromelysin (P08254 100-477): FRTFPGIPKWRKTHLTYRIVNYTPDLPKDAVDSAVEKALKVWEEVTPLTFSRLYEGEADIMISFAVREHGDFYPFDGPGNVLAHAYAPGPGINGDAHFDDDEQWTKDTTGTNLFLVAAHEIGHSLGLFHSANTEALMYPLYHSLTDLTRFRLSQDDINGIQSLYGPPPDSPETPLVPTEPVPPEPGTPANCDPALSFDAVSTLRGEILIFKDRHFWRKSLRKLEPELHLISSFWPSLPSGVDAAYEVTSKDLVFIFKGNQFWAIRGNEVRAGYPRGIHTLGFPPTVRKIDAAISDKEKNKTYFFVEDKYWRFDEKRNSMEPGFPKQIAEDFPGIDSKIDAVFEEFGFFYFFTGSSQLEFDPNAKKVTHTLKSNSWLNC

Structure (SMILES)	Ki (stromelysin)	% inhibition (concentration [μM]) of cartilage degradation ([1]; 25 μM compound)	% inhibition (concentration [μM]) of cartilage degradation ([1]; 50 μM compound)	also measured
O=C(N[C@@H](CCc1ccccc1)C(=O)Nc1n[nH]c(=S)s1)OCC1c2ccccc2-c2ccccc21 [5-(N-(9-flourenylmethoxycarbonyl)homophenylalanylamino)-1,3,4-thiadiazole-2-thione]	436 nM		65%	Ki (92 kD gelatinase): 0.35 nM
CC(C)[C@H](NC(=O)OCC1c2ccccc2-c2ccccc21)C(=O)Nc1n[nH]c(=S)s1 [5-(N-(9-fluorenylmethoxycarbonyl)valylamino)-1,3,4-thiadiazole-2-thione]	128 nM			inhibition at 20 µM ([1]; Bos taurus, 20 μM compound, read-out: % inhibition (concentration [μM]) of cartilage degradation): 42%
CC(C)[C@H](NC(=O)Cc1ccc(-c2ccccc2)cc1)C(=O)Nc1n[nH]c(=S)s1 [5-(N-((4-phenyl)phenylacetyl)valylamino)-1,3,4-thiadiazole-2-thione]	100 nM			inhibition at 25 µM [1, 3]: 47%
O=C(N[C@H](CCc1ccccc1)C(=O)Nc1n[nH]c(=S)s1)OCc1ccccc1 [5-(N-benzyloxycarbonyl-D-homophenylalanylamino)-1,3,4-thiadiazole-2-thione]				inhibition at 25 µM [1, 3]: 22%

Now from value to compound, other results behind:

Ki (stromelysin)	Structure (SMILES)	% inhibition (concentration [μM]) of cartilage degradation ([1]; 25 μM compound)	% inhibition (concentration [μM]) of cartilage degradation ([1]; 50 μM compound)	also measured
135 nM	CC(C)[C@H](NC(=O)[C@H](Cc1ccccc1)NC(=O)Cc1ccc(-c2ccccc2)cc1)C(=O)Nc1n[nH]c(=S)s1 [5-(N-(4-phenyl)phenylacetyl-phenylalanyl-valylamino)-1,3,4-thiadiazole-2-thione]	37%		
80 nM	CC(C)[C@H](NC(=O)[C@H](Cc1ccc(OCc2ccccc2)cc1)NC(=O)OCc1ccccc1)C(=O)Nc1n[nH]c(=S)s1 [5-(N-benzyloxycarbnyl-(O-benzyl)tyrosyl-valylamino)-1,3,4-thiadiazole-2-thione]		59%	Ki [2]: 2.15 nM
91 nM	CC(C)[C@H](NC(=O)[C@H](CCC(=O)NC(c1ccccc1)(c1ccccc1)c1ccccc1)NC(=O)OCc1ccccc1)C(=O)Nc1n[nH]c(=S)s1 [5-(N-benzyloxycarbonyl-(7--N-trityl)glutamyl-valyamino-1,3,4-thiadiazole-2-thione]	56%		
146 nM	CC(C)[C@H](NC(=O)[C@H](CCC(=O)OCc1ccccc1)NC(=O)OCc1ccccc1)C(=O)Nc1n[nH]c(=S)s1 [5-(N-benzyloxycarbonyl-(O-benzyl)glutamoyl-valylamino)-1,3,4-thiadiazole-2-thione]	33%		
225 nM	O=C(N[C@@H](Cc1c[nH]c2ccccc12)C(=O)N[C@@H](Cc1ccccc1)C(=O)Nc1n[nH]c(=S)s1)OCc1ccccc1 [5-(N-benzyloxycarbonyl-tryptoyl-phenylalanylamino)-1,3,4-thiadiazole-2-thione]		35%	
